One compound from PMC6675791, “Clozapine-dependent inhibition of EGF/neuregulin receptor (ErbB) kinases” (Translational Psychiatry, 2019) can be followed below.

Common to all, as to experiment: in vitro kinase assay (ELISA, Tyr-Glu heteropolymer substrate, […] ATP, […] Triton X-100)
Assay type in all cases: biochemical
On the technique in general: An ELISA detects its analyte on a solid surface through an enzyme-linked reagent.

Assay [1] has as its target T1, ErbB4 kinase (Homo sapiens, UniProt Q15303).
T1 construct: recombinant truncated ErbB4 kinase (intracellular domain, lacking the extracellular domain)

The target of assay [2] is T2, ErbB1 kinase (Homo sapiens, UniProt P00533).
T2 construct: gene EGFR; recombinant truncated ErbB1 kinase (intracellular domain, lacking the extracellular domain)
T2 sequence (P00533 669-1210 limits assumed): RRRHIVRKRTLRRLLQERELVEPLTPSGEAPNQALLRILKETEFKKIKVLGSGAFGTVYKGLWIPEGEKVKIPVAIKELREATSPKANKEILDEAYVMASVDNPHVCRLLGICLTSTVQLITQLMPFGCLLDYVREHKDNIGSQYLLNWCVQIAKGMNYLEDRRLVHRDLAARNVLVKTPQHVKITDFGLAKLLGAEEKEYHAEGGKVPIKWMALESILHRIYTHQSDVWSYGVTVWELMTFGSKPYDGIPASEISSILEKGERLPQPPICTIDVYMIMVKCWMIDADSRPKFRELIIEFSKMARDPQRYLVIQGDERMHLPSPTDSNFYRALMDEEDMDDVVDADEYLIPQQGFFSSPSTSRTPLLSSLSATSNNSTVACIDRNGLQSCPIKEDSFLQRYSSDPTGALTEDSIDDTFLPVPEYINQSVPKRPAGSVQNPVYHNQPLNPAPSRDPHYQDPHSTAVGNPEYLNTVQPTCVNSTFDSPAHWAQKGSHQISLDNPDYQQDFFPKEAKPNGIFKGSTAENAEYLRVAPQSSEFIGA

For assay [3], the target named is T3, ErbB2 kinase (Homo sapiens, UniProt P04626).
T3 construct: recombinant truncated ErbB2 kinase (intracellular domain, lacking the extracellular domain)
T3 sequence (P04626 676-1255 limits assumed): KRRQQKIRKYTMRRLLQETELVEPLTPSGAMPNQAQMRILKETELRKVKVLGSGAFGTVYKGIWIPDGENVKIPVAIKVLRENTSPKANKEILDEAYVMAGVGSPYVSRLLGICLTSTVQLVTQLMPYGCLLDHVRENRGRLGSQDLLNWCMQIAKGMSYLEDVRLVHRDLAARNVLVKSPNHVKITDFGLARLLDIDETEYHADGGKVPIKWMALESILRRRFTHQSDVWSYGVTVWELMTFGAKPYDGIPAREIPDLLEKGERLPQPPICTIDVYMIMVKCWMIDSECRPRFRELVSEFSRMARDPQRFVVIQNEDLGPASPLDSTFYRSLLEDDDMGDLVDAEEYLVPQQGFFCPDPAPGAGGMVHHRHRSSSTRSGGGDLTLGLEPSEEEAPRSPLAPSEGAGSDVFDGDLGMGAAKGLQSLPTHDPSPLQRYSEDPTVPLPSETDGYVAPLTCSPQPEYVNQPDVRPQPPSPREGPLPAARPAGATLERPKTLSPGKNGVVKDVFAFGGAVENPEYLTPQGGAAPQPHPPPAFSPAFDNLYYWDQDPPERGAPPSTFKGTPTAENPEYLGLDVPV

T1 sequence (Q15303 676-1308 limits assumed): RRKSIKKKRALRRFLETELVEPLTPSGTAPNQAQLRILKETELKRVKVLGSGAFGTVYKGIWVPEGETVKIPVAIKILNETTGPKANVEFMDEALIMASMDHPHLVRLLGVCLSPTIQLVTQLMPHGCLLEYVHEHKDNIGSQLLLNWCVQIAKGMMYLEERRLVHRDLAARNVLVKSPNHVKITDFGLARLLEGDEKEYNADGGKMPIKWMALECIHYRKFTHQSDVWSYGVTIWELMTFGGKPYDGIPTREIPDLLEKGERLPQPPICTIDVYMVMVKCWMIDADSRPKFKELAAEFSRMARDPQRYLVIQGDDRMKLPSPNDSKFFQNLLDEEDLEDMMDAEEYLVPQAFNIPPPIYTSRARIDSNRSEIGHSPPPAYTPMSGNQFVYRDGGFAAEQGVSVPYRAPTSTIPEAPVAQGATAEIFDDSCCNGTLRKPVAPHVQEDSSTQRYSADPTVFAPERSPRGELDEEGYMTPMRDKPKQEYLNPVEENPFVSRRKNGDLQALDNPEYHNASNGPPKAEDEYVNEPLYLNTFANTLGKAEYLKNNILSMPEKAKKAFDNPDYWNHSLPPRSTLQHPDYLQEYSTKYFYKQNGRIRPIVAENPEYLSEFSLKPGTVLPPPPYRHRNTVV

As for `CN1CCN(C2=Nc3cc(Cl)ccc3Nc3ccccc32)CC1` [CLZ, clozapine], the “in vitro kinase assay (ELISA, Tyr-Glu heteropolymer substrate, 4 mM ATP, 0.2% Tr)” value in assay [1] is 30 µM; in assay [2] it was 30 µM; in assay [3], 3 µM.
